The values below are quoted from earlier work in US20070099940A1, “Pth agonists” (priority 2004, published 2007).

SMILES strings stand for the structures.

For the series, the system named is fracture incidence. The following applies: daily subcutaneous injection for up to 2 years, postmenopausal women.

With `CC[C@H](C)[C@H](NC(=O)[C@H](CCC(=O)O)NC(=O)[C@H](CO)NC(=O)[C@@H](NC(=O)[C@@H](N)CO)C(C)C)C(=O)N[C@@H](CCC(N)=O)C(=O)N[C@@H](CC(C)C)C(=O)N[C@@H](CCSC)C(=O)N[C@@H](Cc1cnc[nH]1)C(=O)N[C@@H](CC(N)=O)C(=O)N[C@@H](CC(C)C)C(=O)NCC(=O)N[C@@H](CCCCN)C(=O)N[C@@H](Cc1cnc[nH]1)C(=O)N[C@@H](CC(C)C)C(=O)N[C@@H](CC(N)=O)C(=O)N[C@@H](CO)C(=O)N[C@@H](CCSC)C(=O)N[C@@H](CCC(=O)O)C(=O)N[C@@H](CCCN=C(N)N)C(=O)N[C@H](C(=O)N[C@@H](CCC(=O)O)C(=O)N[C@@H](Cc1c[nH]c2ccccc12)C(=O)N[C@@H](CC(C)C)C(=O)N[C@@H](CCCN=C(N)N)C(=O)N[C@@H](CCCCN)C(=O)N[C@@H](CCCCN)C(=O)N[C@@H](CC(C)C)C(=O)N[C@@H](CCC(N)=O)C(=O)N[C@@H](CC(=O)O)C(=O)N[C@H](C(=O)N[C@@H](Cc1cnc[nH]1)C(=O)N[C@@H](CC(N)=O)C(=O)N[C@@H](Cc1ccccc1)C(=O)O)C(C)C)C(C)C` [PTH(1-34)], the “reduction of fracture incidence at non-vertebral sites” value is 40% and the “reduction of fracture incidence at the spine” value is recorded as 65%.
